Test results: PMC12218921, “An adaptive peptide-binding site in ubiquitin receptor hRpn13 revealed by structural studies” (Nature Communications, 2025)
No end group written: not given here.

Assays:
[1] = target: T1, hRpn13_ΔMTT (Homo sapiens, UniProt Q16186); assay: 1H-15N HSQC NMR titration / chemical shift perturbation (CSP), 0.1 mM 15N-labeled hRpn13_ΔMTT with unlabeled peptide; type: binding
T1 construct: recombinant plasmid of hRpn13 Pru (1–150) cloned into the pRSET vector; GST (N, cleaved yes); residual Gly-Ser (^cG-^dS) left after cleavage; made in house; host or cells: Escherichia coli BL21 (DE3); pGEX-4T-1 plasmid synthesized by GenScript (Addgene 237412)
Method: The similar spectral effects by adding ENT or ENT_M1S is readily apparent by quantifying and plotting the shifting across the Pru amino acid sequence (Supplementary Fig. 10b, c).
All ^1H-^15N HSQC experiments were acquired on samples dissolved in NMR buffer (20 mM sodium phosphate, pH 6.5, 50 mM NaCl, 1 mM TCEP, 10% D2O) unless specified, in which case 2 mM DTT replaced TCEP. The samples were purified in DTT-containing buffer and then exchanged into NMR buffer by using Zeba Protein Desalting columns (Thermo Fisher Scientific). The pH was measured and adjusted to 6.5. All NMR experiments were performed at 25 °C on a Bruker Advance 600 MHz spectrometer equipped with a cryogenically cooled probe. The data were processed by NMRpipe[46] (version 11.5) and spectra visualized and analyzed with NMR-FAM-SPARKY[47] (version 3.190) by using previous chemical shift assignments[12],[23] and NMRbox[48]. The amide nitrogen and hydrogen chemical shift perturbations (CSP) were mapped for each amino acid according to Eq. 1.1 CSP=0.2ΔδN2+ΔδH2
ΔδH, change in amide proton value (in parts per million); ΔδN, change in amide nitrogen value (in parts per million).
Supplementary Figure 9: 2D NMR experiments indicate ENT binding to hRpn13 Pru. a) ^1H-^15N HSQC spectrum of 0.1 mM ^15N-labeled hRpn13 (1-150, black) or hRpn13_ΔMTT (green). Select residues are labeled with amino acids in the Pru helix, proteasome binding region, and termini in blue, purple, and orange, respectively. Arrows indicate direction of shifting. b, c) ^1H-^15N HSQC spectra of 0.1 mM of ^15N-labeled hRpn13_ΔMTT alone (black) or with ENT present at equimolar (red), 2-fold (orange), 5-fold (yellow), 10-fold (green), 15-fold (blue), or 20-fold (purple) molar excess. […] All spectra were acquired at 600 MHz and 25°C in 20 mM sodium phosphate, pH 6.5, 100 mM NaCl, 1 mM TCEP, 10% D2O. ppm, part per million.

[2] = target: T1, hRpn13_ΔMTT; assay: Competition assay by fluorescence polarization (unlabeled peptide vs TAMRA-hRpn2 (940–953)); type: binding

T1 sequence (Q16186 4-150, stated change not applied): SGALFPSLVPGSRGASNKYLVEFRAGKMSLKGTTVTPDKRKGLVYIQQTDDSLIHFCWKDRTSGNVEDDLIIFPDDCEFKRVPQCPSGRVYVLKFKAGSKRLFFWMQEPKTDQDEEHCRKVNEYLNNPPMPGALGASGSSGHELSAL

## GPGSMTT [ENT]
[1]; 100 μM 15N-hRpn13_ΔMTT, peptide up to 20-fold molar excess, pH 6.5, 25 °C, 600 MHz
  HSQC signal shifting of hRpn13_ΔMTT: small concentration-dependent shifting of the same (T114, D117-E119, C121) and additional (W61, M109, H120, H145) hRpn13 amide signals
[1]; 100 μM 15N-hRpn13_ΔMTT, varying molar ratios
  strength of binding to hRpn13 Pru (by HSQC): weak interaction between ENT and hRpn13 Pru
[1]; 20-fold molar excess peptide
  CSP A6: 0.001342
  CSP A28: 0.00743
  CSP A100: 0.002049
  CSP A136: 0.002049
  CSP A139: 0.0004472
  CSP A149: 0.003493
  CSP C60: 0.003715
  CSP C80: 0.002049
  CSP C88: 0.002449
  CSP C121: 0.02471
  CSP D41: 0
  CSP D53: 0.002049
  CSP D54: 0.001789
  CSP D63: 0.004494
  CSP D71: 0.007
  CSP D72: 0.007759
  CSP D78: 0.005899
  CSP D79: 0.002864
  CSP D115: 0.009859
  CSP D117: 0.033
  CSP E25: 0.009859
  CSP E70: 0.005459
  CSP E81: 0.001342
  CSP E111: 0.01601
  CSP E118: 0.06429
  CSP E119: 0.03311
  CSP E146: 0.01203
  CSP F8: 0.002049
  CSP F26: 0.0264
  CSP F59: 0.002864
  CSP F76: 0.007603
  CSP F82: 0.004219
  CSP F98: 0.009391
  CSP F106: 0.002864
  CSP F107: 0.001789
  CSP G5: 0
  CSP G17: 0.002683
  CSP G29: 0.003286
  CSP G45: 0.006148
  CSP G67: 0.001342
  CSP G91: 0.002049
  CSP G101: 0.004669
  CSP G135: 0.002449
  CSP G138: 0.001095
  CSP G141: 0.002049
  CSP G144: 0.001342
  CSP H58: 0.007057
  CSP H120: 0.07737
  CSP H145: 0.06834
  CSP I49: 0.002408
  CSP I57: 0.004025
  CSP I75: 0.001673
  CSP K21: 0.0004472
  CSP K30: 0.01021
  CSP K34: 0.002408
  CSP K42: 0.00502
  CSP K62: 0.001342
  CSP K83: 0.005367
  CSP K97: 0.002449
  CSP K99: 0.001095
  CSP K103: 0.003131
  CSP K113: 0.008729
  CSP K123: 0.01565
  CSP L7: 0.002408
  CSP L11: 0.001342
  CSP L23: 0.004382
  CSP L33: 0.002
  CSP L46: 0.004899
  CSP L56: 0.002236
  CSP L73: 0.003493
  CSP L96: 0.001095
  CSP L105: 0.006017
  CSP L128: 0.003
  CSP L137: 0.002449
  CSP L147: 0.01114
  CSP L150: 0.003493
  CSP M31: 0.003131
  CSP M109: 0.01978
  CSP M133: 0.001095
  CSP N20: 0.002049
  CSP N68: 0.001095
  CSP N125: 0.002049
  CSP N129: 0.004025
  CSP N130: 0.001673
  CSP Q50: 0.003742
  CSP Q51: 0.004025
  CSP Q87: 0.003742
  CSP R16: 0.001095
  CSP R27: 0.001095
  CSP R43: 0.002191
  CSP R64: 0.004025
  CSP R92 backbone: 0.003131
  CSP R92 sidechain: 0.016
  CSP R104: 0.008112
  CSP R122: 0.01435
  CSP S4: 0.009602
  CSP S10: 0.001342
  CSP S15: 0.001342
  CSP S19: 0.001342
  CSP S32: 0.001342
  CSP S55: 0.002864
  CSP S66: 0.004472
  CSP S102: 0.002049
  CSP S140: 0.001342
  CSP S142: 0.002049
  CSP S143: 0.002236
  CSP S148: 0.003286
  CSP T36: 0.00882
  CSP T37: 0.003578
  CSP T39: 0.001342
  CSP T52: 0
  CSP T65: 0.001342
  CSP T114: 0.02379
  CSP V12: 0.002049
  CSP V24: 0.003715
  CSP V47: 0.008497
  CSP V69: 0.004494
  CSP V93: 0.004494
  CSP V95: 0.002683
  CSP V124: 0.0139
  CSP W61: 0.0278
  CSP W108: 0.005899
  CSP Y22: 0.01048
  CSP Y48: 0.003715
  CSP Y94: 0.00502
  CSP Y127: 0.00531
[1]; e.g. F76 and D78 amide signals
  effect at Pru-B-binding surface (HSQC): No effects were observed at the Pru-B-binding surface
[2]; 80 nM hRpn13_ΔMTT, 10 nM TAMRA-hRpn2 (940–953), N = 6
  concentration required to completely decrease the FP to background levels: > 3 mM
[2]; FP competition
  concentrations at which peptides can displace hRpn2 from hRpn13: > 0.5 mM
[2]; peer review file, FP competition with TAMRA-hRpn2 (940-953), read-out: IC50 (FP decreased to background levels)
  IC50: > 3 mM
